The supplement of paper PMC10307832

Columns and labels:
Assay in all cases: relative viability (nuclei count vs DMSO), 5 days (fraction); higher = more cells survive
LCLC-103H = system: LCLC-103H
In short: (§1)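 Relative viability is defined as nuclei in treated wells over nuclei in vehicle wells. Duplicate plates were run and medians reported. Lung cancer cell lines in 1536-well plates were dosed by pin tool one day after seeding, with one drug or with a fixed anchor-drug dose plus five library-drug doses (not always all listed) in √10 steps, and nuclei were counted after 5 days.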

NCI-H2126 = system: NCI-H2126
In short: as §1

NCI-H2347 = system: NCI-H2347
In short: as §1

NCI-H1395 = system: NCI-H1395
In short: as §1

CAL-12T = system: CAL-12T
In short: as §1

ABC-1 = system: ABC-1
In short: as §1

LU99A = system: LU99A
In short: as §1

HCC-827 = system: HCC-827
In short: as §1

RERF-LC-KJ = system: RERF-LC-KJ
In short: as §1

SK-LU-1 = system: SK-LU-1
In short: as §1

NCI-H1755 = system: NCI-H1755
In short: as §1

LXF-289 = system: LXF-289
In short: as §1

HCC-44 = system: HCC-44
In short: as §1

NCI-H1944 = system: NCI-H1944
In short: as §1

NCI-H1792 = system: NCI-H1792
In short: as §1

ChaGo-K-1 = system: ChaGo-K-1
In short: as §1

NCI-H322M = system: NCI-H322M
In short: as §1

NCI-H520 = system: NCI-H520
In short: as §1

NCI-H3122 = system: NCI-H3122
In short: as §1

NCI-H1666 = system: NCI-H1666
In short: as §1

NCI-H358 = system: NCI-H358
In short: as §1

NCI-H1793 = system: NCI-H1793
In short: as §1

## Cc1csc(=NC2CCCCC2)n1/N=C/c1ccc(O)c(O)c1O [MIM1] + CCNC(=O)c1noc(-c2cc(C(C)C)c(O)cc2O)c1-c1ccc(CN2CCOCC2)cc1 [Luminespib] (partner 0.01 µM)
LCLC-103H; first compound 0.2 µM
  relative viability: 1.03
LCLC-103H; first compound 0.6325 µM
  relative viability: 0.908
LCLC-103H; first compound 2 µM
  relative viability: 0.908
LCLC-103H; first compound 6.325 µM
  relative viability: 0.632
LCLC-103H; first compound 20 µM
  relative viability: 0.419
NCI-H2126; first compound 0.2 µM
  relative viability: 0.891
NCI-H2126; first compound 0.6325 µM
  relative viability: 0.943
NCI-H2126; first compound 2 µM
  relative viability: 0.957
NCI-H2126; first compound 6.325 µM
  relative viability: 0.88
NCI-H2126; first compound 20 µM
  relative viability: 0.466
NCI-H2347; first compound 0.2 µM
  relative viability: 0.496
NCI-H2347; first compound 0.6325 µM
  relative viability: 0.403
NCI-H2347; first compound 2 µM
  relative viability: 0.236
NCI-H2347; first compound 6.325 µM
  relative viability: 0.346
NCI-H2347; first compound 20 µM
  relative viability: 0.334
NCI-H1395; first compound 0.2 µM
  relative viability: 0.66
NCI-H1395; first compound 0.6325 µM
  relative viability: 0.547
NCI-H1395; first compound 2 µM
  relative viability: 0.755
NCI-H1395; first compound 6.325 µM
  relative viability: 0.573
NCI-H1395; first compound 20 µM
  relative viability: 0.293
CAL-12T; first compound 0.2 µM
  relative viability: 0.29
CAL-12T; first compound 0.6325 µM
  relative viability: 0.542
CAL-12T; first compound 2 µM
  relative viability: 0.522
CAL-12T; first compound 6.325 µM
  relative viability: 0.281
CAL-12T; first compound 20 µM
  relative viability: 0.328
ABC-1; first compound 0.2 µM
  relative viability: 0.499
ABC-1; first compound 0.6325 µM
  relative viability: 0.835
ABC-1; first compound 2 µM
  relative viability: 0.497
ABC-1; first compound 6.325 µM
  relative viability: 0.399
ABC-1; first compound 20 µM
  relative viability: 0.315
LU99A; first compound 0.2 µM
  relative viability: 0.227
LU99A; first compound 0.6325 µM
  relative viability: 0.317
LU99A; first compound 2 µM
  relative viability: 0.26
LU99A; first compound 6.325 µM
  relative viability: 0.308
LU99A; first compound 20 µM
  relative viability: 0.219
HCC-827; first compound 0.2 µM
  relative viability: 0.517
HCC-827; first compound 0.6325 µM
  relative viability: 0.384
HCC-827; first compound 2 µM
  relative viability: 0.698
HCC-827; first compound 6.325 µM
  relative viability: 0.371
HCC-827; first compound 20 µM
  relative viability: 0.184
RERF-LC-KJ; first compound 0.2 µM
  relative viability: 1.21
RERF-LC-KJ; first compound 0.6325 µM
  relative viability: 1.26
RERF-LC-KJ; first compound 2 µM
  relative viability: 0.73
RERF-LC-KJ; first compound 6.325 µM
  relative viability: 0.416
RERF-LC-KJ; first compound 20 µM
  relative viability: 0.284
SK-LU-1; first compound 0.2 µM
  relative viability: 0.178
SK-LU-1; first compound 0.6325 µM
  relative viability: 0.21
SK-LU-1; first compound 2 µM
  relative viability: 0.181
SK-LU-1; first compound 6.325 µM
  relative viability: 0.196
SK-LU-1; first compound 20 µM
  relative viability: 0.227
NCI-H1755; first compound 0.2 µM
  relative viability: 0.455
NCI-H1755; first compound 0.6325 µM
  relative viability: 0.51
NCI-H1755; first compound 2 µM
  relative viability: 0.703
NCI-H1755; first compound 6.325 µM
  relative viability: 0.459
NCI-H1755; first compound 20 µM
  relative viability: 0.414
LXF-289; first compound 0.2 µM
  relative viability: 0.708
LXF-289; first compound 0.6325 µM
  relative viability: 0.649
LXF-289; first compound 2 µM
  relative viability: 0.659
LXF-289; first compound 6.325 µM
  relative viability: 0.54
LXF-289; first compound 20 µM
  relative viability: 0.453
HCC-44; first compound 0.2 µM
  relative viability: 0.952
HCC-44; first compound 0.6325 µM
  relative viability: 1.04
HCC-44; first compound 2 µM
  relative viability: 0.433
HCC-44; first compound 6.325 µM
  relative viability: 0.735
HCC-44; first compound 20 µM
  relative viability: 0.228
NCI-H1944; first compound 0.2 µM
  relative viability: 0.632
NCI-H1944; first compound 0.6325 µM
  relative viability: 0.823
NCI-H1944; first compound 2 µM
  relative viability: 0.466
NCI-H1944; first compound 6.325 µM
  relative viability: 0.517
NCI-H1944; first compound 20 µM
  relative viability: 0.568
NCI-H1792; first compound 0.2 µM
  relative viability: 0.449
NCI-H1792; first compound 0.6325 µM
  relative viability: 0.43
NCI-H1792; first compound 2 µM
  relative viability: 0.5
NCI-H1792; first compound 6.325 µM
  relative viability: 0.398
NCI-H1792; first compound 20 µM
  relative viability: 0.396
ChaGo-K-1; first compound 0.2 µM
  relative viability: 0.559
ChaGo-K-1; first compound 0.6325 µM
  relative viability: 0.735
ChaGo-K-1; first compound 2 µM
  relative viability: 0.473
ChaGo-K-1; first compound 6.325 µM
  relative viability: 0.323
ChaGo-K-1; first compound 20 µM
  relative viability: 0.158
NCI-H322M; first compound 0.2 µM
  relative viability: 0.837
NCI-H322M; first compound 0.6325 µM
  relative viability: 0.771
NCI-H322M; first compound 2 µM
  relative viability: 0.832
NCI-H322M; first compound 6.325 µM
  relative viability: 0.729
NCI-H322M; first compound 20 µM
  relative viability: 0.31
NCI-H520; first compound 0.2 µM
  relative viability: 0.208
NCI-H520; first compound 0.6325 µM
  relative viability: 0.259
NCI-H520; first compound 2 µM
  relative viability: 0.178
NCI-H520; first compound 6.325 µM
  relative viability: 0.274
NCI-H520; first compound 20 µM
  relative viability: 0.257
NCI-H3122; first compound 0.2 µM
  relative viability: 0.0956
NCI-H3122; first compound 0.6325 µM
  relative viability: 0.0902
NCI-H3122; first compound 2 µM
  relative viability: 0.103
NCI-H3122; first compound 6.325 µM
  relative viability: 0.106
NCI-H3122; first compound 20 µM
  relative viability: 0.0938
NCI-H1666; first compound 0.2 µM
  relative viability: 1.02
NCI-H1666; first compound 0.6325 µM
  relative viability: 1.13
NCI-H1666; first compound 2 µM
  relative viability: 1.02
NCI-H1666; first compound 6.325 µM
  relative viability: 0.884
NCI-H1666; first compound 20 µM
  relative viability: 0.767
NCI-H358; first compound 0.2 µM
  relative viability: 0.472
NCI-H358; first compound 0.6325 µM
  relative viability: 0.292
NCI-H358; first compound 2 µM
  relative viability: 0.303
NCI-H358; first compound 6.325 µM
  relative viability: 0.204
NCI-H358; first compound 20 µM
  relative viability: 0.211
NCI-H1793; first compound 0.2 µM
  relative viability: 0.187
NCI-H1793; first compound 2 µM
  relative viability: 0.188
NCI-H1793; first compound 6.325 µM
  relative viability: 0.162
NCI-H1793; first compound 20 µM
  relative viability: 0.138
